For ten molecules, T/C results are on record in PubChem BioAssay AID256 (DTP/NCI, 2004).

This assay concerns CD2F1 mice, L1210 leukemia ip, survival T/C. Kind of assay: NCI In Vivo Anticancer Drug Screen. Data for tumor model L1210 Leukemia (intraperitoneal) in CD2F1 (CDF1) mice. Conditions: higher = longer survival. The method, boiled down:
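Tumor-bearing mice (transplanted tumor) were split into treated and vehicle control groups, and the measured endpoint of each treated group was divided by that of its vehicle controls.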

The mark [1] stands for this setting: endpoint: mean survival time, dose: 100.0 mg/kg/injection, schedule: Q01DX009 (ip), vehicle: saline with Tween-80.
Where [2] appears, read: endpoint: mean survival time, dose: 200.0 mg/kg/injection, schedule: Q01DX009 (ip), vehicle: saline with Tween-80.
The mark [3] stands for this setting: endpoint: mean survival time, dose: 400.0 mg/kg/injection, schedule: Q01DX009 (ip), vehicle: saline with Tween-80.
[4] abbreviates: endpoint: mean survival time, dose: 100.0 mg/kg/injection, schedule: Q01DX001 (ip), vehicle: Klucel (hydroxypropylcellulose) (HPC).
[5] abbreviates: endpoint: mean survival time, dose: 200.0 mg/kg/injection, schedule: Q01DX001 (ip), vehicle: Klucel (hydroxypropylcellulose) (HPC).
The mark [6] stands for this setting: endpoint: mean survival time, dose: 400.0 mg/kg/injection, schedule: Q01DX001 (ip), vehicle: Klucel (hydroxypropylcellulose) (HPC).
Setting [7] is: endpoint: mean survival time, dose: 100.0 mg/kg/injection, schedule: Q04DX003 (ip), vehicle: saline with Tween-80.
Setting [8] is: endpoint: mean survival time, dose: 200.0 mg/kg/injection, schedule: Q04DX003 (ip), vehicle: saline with Tween-80.

“And” between values parts separate entries of the source, which are not always exact repeats. Identical values can stand only once. Inconclusive results and toxic doses are left out.

As to `NC(=S)N/N=C/c1ccc(O)cn1`, the T/C is, setting by setting: (endpoint: mean survival time, dose: 12.5 mg/kg/injection, schedule: Q01DX009 (ip), vehicle: saline) 124 % of control; (endpoint: mean survival time, dose: 12.5 mg/kg/injection, schedule: Q03HX024 (ip), vehicle: saline) 153 % of control and 163 % of control; (endpoint: mean survival time, dose: 18.8 mg/kg/injection, schedule: Q01DX009 (ip), vehicle: saline with Tween-80) 162 % of control; (endpoint: mean survival time, dose: 25.0 mg/kg/injection, schedule: Q01DX009 (ip), vehicle: saline with Tween-80) 155 % of control; (endpoint: mean survival time, dose: 25.0 mg/kg/injection, schedule: Q01DX009 (ip), vehicle: saline) 150 % of control and 170 % of control; (endpoint: mean survival time, dose: 25.0 mg/kg/injection, schedule: Q01DX009 (oral), vehicle: saline) 94 % of control. Besides, the T/C by setting is: (endpoint: mean survival time, dose: 25.0 mg/kg/injection, schedule: Q03HX024 (ip), vehicle: saline) 168 % of control and 217 % of control; (endpoint: mean survival time, dose: 37.5 mg/kg/injection, schedule: Q01DX009 (ip), vehicle: saline with Tween-80) 160 % of control and 166 % of control; (endpoint: mean survival time, dose: 50.0 mg/kg/injection, schedule: Q01DX009 (ip), vehicle: saline with Tween-80) 183 % of control; (endpoint: mean survival time, dose: 50.0 mg/kg/injection, schedule: Q01DX009 (ip), vehicle: saline) 151 % of control and 154 % of control; (endpoint: mean survival time, dose: 50.0 mg/kg/injection, schedule: Q01DX009 (oral), vehicle: saline) 95 % of control; (endpoint: mean survival time, dose: 50.0 mg/kg/injection, schedule: Q03HX024 (ip), vehicle: saline) 162 % of control and 211 % of control. The T/C is 102 % of control under setting [1]; 103 % of control (endpoint: mean survival time, dose: 100.0 mg/kg/injection, schedule: Q01DX009 (oral), vehicle: saline); 103 % of control (endpoint: mean survival time, dose: 150.0 mg/kg/injection, schedule: Q01DX009 (ip), vehicle: saline with Tween-80); 115 % of control and 110 % of control (endpoint: mean survival time, dose: 200.0 mg/kg/injection, schedule: Q01DX009 (ip), vehicle: saline); 102 % of control (endpoint: mean survival time, dose: 200.0 mg/kg/injection, schedule: Q01DX009 (oral), vehicle: saline); 88 % of control and 92 % of control (endpoint: mean survival time, dose: 400.0 mg/kg/injection, schedule: Q01DX009 (ip), vehicle: saline). In addition, the T/C (endpoint: mean survival time, dose: 400.0 mg/kg/injection, schedule: Q01DX009 (oral), vehicle: saline) was 114 % of control; the T/C (endpoint: median survival time, dose: 20.0 mg/kg/injection, schedule: Q03HX024 (ip), vehicle: saline) was 152 % of control and 566 % of control; the T/C (endpoint: median survival time, dose: 21.8 mg/kg/injection, schedule: Q03HX008 (ip), vehicle: suspension in saline) was 185 % of control; the T/C (endpoint: median survival time, dose: 22.5 mg/kg/injection, schedule: Q03HX024 (ip), vehicle: suspension in saline) was 214 % of control; the T/C (endpoint: median survival time, dose: 32.6 mg/kg/injection, schedule: Q03HX008 (ip), vehicle: suspension in saline) is 188 % of control; the T/C (endpoint: median survival time, dose: 40.0 mg/kg/injection, schedule: Q03HX024 (ip), vehicle: saline) was 210 % of control and 566 % of control. Besides, the T/C (endpoint: median survival time, dose: 45.0 mg/kg/injection, schedule: Q03HX024 (ip), vehicle: suspension in saline) is 238 % of control; the T/C (endpoint: median survival time, dose: 45.0 mg/kg/injection, schedule: Q04DX003 (ip), vehicle: suspension in saline) was 119 % of control; the T/C (endpoint: median survival time, dose: 48.6 mg/kg/injection, schedule: Q03HX008 (ip), vehicle: suspension in saline) is 232 % of control; the T/C (endpoint: median survival time, dose: 50.0 mg/kg/injection, schedule: Q03HX024 (ip), vehicle: saline) was 566 % of control; the T/C (endpoint: median survival time, dose: 60.0 mg/kg/injection, schedule: Q03HX024 (ip), vehicle: saline) was 566 % of control; the T/C (endpoint: median survival time, dose: 80.0 mg/kg/injection, schedule: Q03HX024 (ip), vehicle: saline) was 119 % of control. Also, the T/C was 122 % of control (endpoint: median survival time, dose: 90.0 mg/kg/injection, schedule: Q04DX003 (ip), vehicle: suspension in saline); 94 % of control (endpoint: median survival time, dose: 108.3 mg/kg/injection, schedule: Q03HX008 (ip), vehicle: suspension in saline); 152 % of control (endpoint: median survival time, dose: 161.6 mg/kg/injection, schedule: Q04DX003 (ip), vehicle: suspension in saline); 110 % of control (endpoint: median survival time, dose: 180.0 mg/kg/injection, schedule: Q03HX024 (ip), vehicle: suspension in saline); 156 % of control (endpoint: median survival time, dose: 241.2 mg/kg/injection, schedule: Q04DX003 (ip), vehicle: suspension in saline); 176 % of control and 211 % of control (endpoint: median survival time, dose: 360.0 mg/kg/injection, schedule: Q04DX003 (ip), vehicle: suspension in saline). Also, the T/C is 184 % of control (endpoint: median survival time, dose: 537.3 mg/kg/injection, schedule: Q04DX003 (ip), vehicle: suspension in saline) and 122 % of control (endpoint: median survival time, dose: 720.0 mg/kg/injection, schedule: Q04DX003 (ip), vehicle: suspension in saline).
On to `C/C=C(/Cl)C(=O)O`, for which the T/C is 100 % of control (endpoint: mean survival time, dose: 100.0 mg/kg/injection, schedule: Q01DX001 (ip), vehicle: saline with Tween-80) and 101 % of control (endpoint: mean survival time, dose: 200.0 mg/kg/injection, schedule: Q01DX001 (ip), vehicle: saline with Tween-80).
In the case of `OCC1OC(n2ncc3c(Nc4ccccc4)ncnc32)C(O)C1O` (stereo not drawn), the T/C is 97 % of control (endpoint: mean survival time, dose: 6.25 mg/kg/injection, schedule: Q01DX005 (ip), vehicle: other); 91 % of control (endpoint: mean survival time, dose: 12.5 mg/kg/injection, schedule: Q01DX005 (ip), vehicle: other); 100 % of control (endpoint: mean survival time, dose: 25.0 mg/kg/injection, schedule: Q01DX005 (ip), vehicle: other); 96 % of control (endpoint: mean survival time, dose: 50.0 mg/kg/injection, schedule: Q01DX005 (ip), vehicle: other); 92 % of control (endpoint: mean survival time, dose: 100.0 mg/kg/injection, schedule: Q01DX005 (ip), vehicle: other); 96 % of control (endpoint: mean survival time, dose: 200.0 mg/kg/injection, schedule: Q01DX005 (ip), vehicle: other). Further, where the note is “endpoint: mean survival time, dose: 400.0 mg/kg/injection, schedule: Q01DX005 (ip), vehicle: other”, the T/C is 96 % of control.
As for `CCOc1cc(/C=N/NC(=O)C(O)c2ccccc2)ccc1O` (stereo not drawn), the T/C was 95 % of control under setting [1], 103 % of control under setting [2] and 101 % of control under setting [3].
As to `CC1(C)N=C(N)N=C(N)N1c1cccc(CCCCc2ccc(Cl)c(S(=O)(=O)F)c2)c1`, the T/C (endpoint: mean survival time, dose: 1.8 mg/kg/injection, schedule: Q01DX009 (ip), vehicle: saline) is 98 % of control; the T/C (endpoint: mean survival time, dose: 3.5 mg/kg/injection, schedule: Q01DX009 (ip), vehicle: saline) is 93 % of control; the T/C (endpoint: mean survival time, dose: 7.0 mg/kg/injection, schedule: Q01DX009 (ip), vehicle: saline) was 91 % of control; the T/C (endpoint: mean survival time, dose: 14.0 mg/kg/injection, schedule: Q01DX009 (ip), vehicle: saline) was 89 % of control; the T/C (endpoint: mean survival time, dose: 28.0 mg/kg/injection, schedule: Q01DX009 (ip), vehicle: saline) was 104 % of control; the T/C (endpoint: mean survival time, dose: 200.0 mg/kg/injection, schedule: Q04DX003 (ip), vehicle: saline sonified) was 86 % of control.
As for `CCC(CCc1ccc(OC)c(OC)c1)C(=O)O` (stereo not drawn), the T/C runs as follows: (endpoint: mean survival time, dose: 100.0 mg/kg/injection, schedule: Q04DX002 (ip), vehicle: saline with Tween-80) 109 % of control; (endpoint: mean survival time, dose: 200.0 mg/kg/injection, schedule: Q04DX002 (ip), vehicle: saline with Tween-80) 102 % of control; (endpoint: mean survival time, dose: 400.0 mg/kg/injection, schedule: Q04DX002 (ip), vehicle: saline with Tween-80) 98 % of control.
Consider `O=c1[nH]c2ccccc2c2ccccc2[nH]c(=O)c2ccccc12`, for which the T/C under setting [4] is 98 % of control, the T/C under setting [5] is 102 % of control and the T/C under setting [6] was 102 % of control.
In the case of `Cc1cc(C)c(N)c(Br)c1C`, the T/C by setting is: under setting [1], 102 % of control; under setting [7], 103 % of control; under setting [2], 97 % of control; under setting [8], 100 % of control; under setting [3], 104 % of control; (endpoint: mean survival time, dose: 400.0 mg/kg/injection, schedule: Q04DX003 (ip), vehicle: saline with Tween-80) 101 % of control.
Regarding `NCC(OC1CCCCC1)C(Cl)(Cl)Cl` (stereo not drawn), the T/C is, setting by setting: under setting [7], 101 % of control; under setting [8], 93 % of control.
On to `CC(=O)CC(C)(C)S(=O)(=O)Cc1ccccc1`, for which the T/C under setting [4] was 93 % of control, the T/C under setting [5] was 96 % of control and the T/C under setting [6] was 96 % of control.
